Consider three compounds from patent publication US7947468B2, “Methods” (Medical Research Council, priority 2007, dated 2011).

One experiment relates to Human Platelets. Conditions: non-specific serine/threonine kinase inhibitor; cited from earlier work.
For a further experiment, the system named is LRRK2. Put plainly: Concentration dependent phosphorylation of Nictide / LongLRRKtide by LRRK2. The experiment is classed as biochemical. An excerpt:
A longer LRRKtide, with the +7 to +12 residues of the Thr 558 site was compared to the LRRKtide by phosphorylation with LRRK2. […] The LRRK2 affinity for the longLRRKtide is ten fold more than that that of LRRKtide.
A derived consensus sequences is shown below the positions. FIG. 24B depicts an alignment of the peptide substrate sequences previously used for LRRK2, LRRKtide and LongLRRKtide, along with a new peptide in which the preferred LRRK2 residues are substituted, henceforth referred to as Nictide. […] Calculated Km values are 6 μM for Nictide.

For the compound `CN[C@@H]1C[C@H]2O[C@@](C)([C@@H]1OC)n1c3ccccc3c3c4c(c5c6ccccc6n2c5c31)C(=O)NC4` [staurosporine], the “effect on platelet behaviour” value with Human Platelets was “form extremely long filopodia and not to spread on glass”.
Consider “RLGRDKYKTLRQIRQGNTKQR (listed as Homo sapiens) [longLRRKtide]”, for which the “LRRK2 affinity relative to LRRKtide” value in the experiment on LRRK2 (compared to LRRKtide) was “ten fold”.
In the case of RLGWWRFYTLRRARQGNTKQR [Nictide], the Km in the experiment on LRRK2 (5 min reaction times, read-out: Calculated Km) is 6 µM.

A word on the Km: it is the substrate concentration at which the rate is half of its maximum.
